The structures appear in SMILES notation.

The subject of experiment [1] is A/Puerto Rico/8/34 (A/H1N1) influenza virus isolates. Format: cell-based.
In experiment [2] the test system is A/California/07/2009 (A/H1N1) influenza virus isolates. Format: cell-based.

Take `CC(C)(C)[C@@H](CC(=O)O)Nc1nc(-c2c[nH]c3ncc(F)cc23)ncc1F` [Compound 1]: the EC50 shift in experiment [1] came to 286 fold; in experiment [2], 500 fold.

The values are drawn from US10801077B2, “Influenza A virus variants” (Vertex Pharmaceuticals Incorporated, priority 2014, dated 2020).
